Assay results published in patent US20240174637A1, “DEGRADERS OF GRK2 AND USES THEREOF” (Sonata Therapeutics, Inc., priority 2021, published 2024).

Tests used:
Type in all cases: cell-based
GRK2 = target: T1, GRK2 (Homo sapiens, UniProt P25098); assay: GRK2 Degradation Assay and Western Blot in PAXF1657 cells; set-up: endogenous in cells; host or cells: PAXF1657; conditions: PAXF1657 EV, 24 hrs; for inhibition at 1 µM: read-out: % GRK2 degradation at 1 uM in PAXF1657 EV (24 hrs)
T1 sequence (P25098 1-689): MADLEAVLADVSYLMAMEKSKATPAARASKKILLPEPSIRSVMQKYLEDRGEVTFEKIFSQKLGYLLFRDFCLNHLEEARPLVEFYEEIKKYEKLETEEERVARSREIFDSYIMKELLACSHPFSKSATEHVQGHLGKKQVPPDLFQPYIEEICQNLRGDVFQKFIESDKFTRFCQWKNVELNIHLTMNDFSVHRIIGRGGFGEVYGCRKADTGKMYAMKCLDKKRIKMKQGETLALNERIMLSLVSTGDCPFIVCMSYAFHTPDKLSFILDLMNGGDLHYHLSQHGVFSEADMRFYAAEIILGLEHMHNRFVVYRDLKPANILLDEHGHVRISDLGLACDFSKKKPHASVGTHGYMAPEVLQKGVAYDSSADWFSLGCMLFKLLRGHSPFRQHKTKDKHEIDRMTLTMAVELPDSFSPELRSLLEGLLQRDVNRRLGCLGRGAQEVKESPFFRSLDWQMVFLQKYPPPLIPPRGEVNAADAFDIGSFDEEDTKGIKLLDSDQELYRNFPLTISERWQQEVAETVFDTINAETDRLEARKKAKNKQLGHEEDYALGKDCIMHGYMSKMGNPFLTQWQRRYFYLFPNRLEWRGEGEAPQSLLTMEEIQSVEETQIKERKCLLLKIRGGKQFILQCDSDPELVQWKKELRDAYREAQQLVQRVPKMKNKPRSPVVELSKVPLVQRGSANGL
Summary of the method: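 PAXF1657 cells grown to 70% confluency, then treated with compounds at 0–10 μM for 6 to 24 h at 37 °C. Lysates in PBS with 1% NP40 run on SDS-PAGE. GRK2 protein detected by western blot with β-actin as loading reference, using ECL chemiluminescence.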

PAXF1657 KO Clone #4 = assay: 7-day cellular proliferation assay (CellTiter-Glo), PAXF1657 KO Clone #4; conditions: 168 h, 7-day, read-out: 7-day proliferation assay: IC50 GeoMean (uM) [Cell Line: PAXF1657 KO Clone #4]
Summary of the method: (§1)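 Seven-day growth in PAXF1657 lines engineered for GRK2 overexpression or knockout, measured by CellTiter-Glo; compounds tested at 30 μM-0.0002 μM final and replenished once at day 3.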

PAXF1657 EV = assay: 7-day cellular proliferation assay (CellTiter-Glo), PAXF1657 EV; conditions: 168 h, 7-day, read-out: 7-day proliferation assay: IC50 GeoMean (uM) [Cell Line: PAXF1657 EV]
Summary of the method: as §1

For `Cc1ncsc1-c1ccc(CNC(=O)[C@@H]2C[C@@H](O)CN2C(=O)[C@@H](NC(=O)COCCOCCOCCOCCOCCOCCCCCCOc2cccc(CNC(=O)c3cccc(NCc4nnc(-c5ccncn5)n4C)c3)c2)C(C)(C)C)cc1` [Compound D100], the inhibition at 1 µM (GRK2) was 22%, the “% GRK2 degradation at 10 uM in PAXF1657 EV (24 hrs)” value (GRK2) was 39% and the IC50 (PAXF1657 KO Clone #4) was over 10 µM. For the same compound, the IC50 (PAXF1657 EV) was over 10 µM.

With `Cc1ncsc1-c1ccc(CNC(=O)[C@@H]2C[C@@H](O)CN2C(=O)[C@@H](NC(=O)COCCOCCCCCCOc2cccc(CNC(=O)c3cccc(NCc4nnc(-c5ccncn5)n4C)c3)c2)C(C)(C)C)cc1` [Compound D101] the inhibition at 1 µM (GRK2) was 18%, the “% GRK2 degradation at 10 uM in PAXF1657 EV (24 hrs)” value (GRK2) was 10% and the IC50 (PAXF1657 KO Clone #4) was 1 to 10 µM. The IC50 (PAXF1657 EV) was under 1 µM.
